Patent publication US20250136576A1, “Heterocyclic Compounds and Uses Thereof” (ACEA Therapeutics, Inc., priority 2021, published 2025)

What follows are molecules tested on KM12-luc cells (assay: Cell proliferation and growth inhibition assay (CCK-8) in KM12-luc). Conditions: KM12-Luc, 72 h, KM12-luc cells, treated with test compounds for 72 hrs, CCK-8 viability; read-out: NTRK IC50 in KM12-luc.
Type: cell-based
Summary of the method: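 Cells were grown at 37 °C, 5% CO2 with 10% FBS: MV-4-11 in IMDM, H1975 in RPMI 1640, KM12-luc in DMEM. Viability was read by CCK-8 (1-4 hrs reagent incubation, absorbance at OD450). IC50 came from a non-linear sigmoidal dose-response fit.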

Row | Structure (SMILES) | IC50 [nM]
1 | CC(=O)Nc1cc(Nc2ncc(C(F)(F)F)c(-c3c[nH]c4cccc(F)c34)n2)ccc1N(C)CCN(C)C [Compound 316, N-(2-((2-(dimethylamino)ethyl)(methyl)amino)-5-((4-(4-fluoro-1H-indol-3-yl)-5-(trifluoromethyl)pyrimidin-2-yl)amino)phenyl)acetamide] | 21.6
2 | COc1cccc2c(-c3nc(Nc4ccc(N5CC[C@@H](N(C)C)C5)c(NC(C)=O)c4)ncc3Cl)cn(C)c12 [Compound R-435, (R)—N-(5-(5-chloro-4-(7-methoxy-1-methyl-1H-indol-3-yl)pyrimidin-2-ylamino)-2-(3-(dimethylamino)pyrrolidin-1-yl)phenyl)acetamide] | 31.9
3 | COc1cnc(Nc2ccc(N3CC[C@H](N(C)C)C3)c(NC(C)=O)c2)nc1-c1c[nH]c2c(OC)cccc12 [Compound S-288, (S)—N-(2-(3-(dimethylamino)pyrrolidin-1-yl)-5-((5-methoxy-4-(7-methoxy-1H-indol-3-yl)pyrimidin-2-yl)amino)phenyl)acetamide] | 16.9
4 | CC(=O)Nc1cc(Nc2ncc(C(F)(F)F)c(-c3c[nH]c4ccccc34)n2)ccc1NCCN(C)C [Compound 303a, N-(5-((4-(1H-indol-3-yl)-5-(trifluoromethyl)pyrimidin-2-yl)amino)-2-((2-(dimethylamino)ethyl)amino)phenyl)acetamide] | 19.1
5 | COc1cnc(Nc2ccc(N3CC[C@H](N(C)C)C3)c(NC(C)=O)c2)nc1-c1c[nH]c2c(F)cccc12 [Compound S-280, (S)—N-(2-(3-(dimethylamino)pyrrolidin-1-yl)-5-((4-(7-fluoro-1H-indol-3-yl)-5-methoxypyrimidin-2-yl)amino)phenyl)acetamide] | 14.6

Each molecule was assayed on H1975 cells (assay: Cell proliferation and growth inhibition assay (CCK-8) in H1975). Conditions: Homo sapiens, NCI-H1975, 72 h, treated with test compounds for 72 hrs, CCK-8 viability, read-out: EGFR IC50 in H1975.
Type: cell-based
Experimental: MV-4-11 and H1975 cells were obtained from the American Type Culture Collection and KM12-luc cells were obtained from JCRB Cell Bank. All cell lines were maintained at 37° C. with 5% C02, in media supplemented with 10% fetal bovine serum and penicillin (100 units/mL) and streptomycin (100 μg/mL). MV-4-11 cells were maintained in Iscove's Modified Dubecco's Medium, H1975 cells were cultured with RPMI 1640 media, and KM12-luc cells were maintained in Dulbecco's Modification of Eagle's Medium. CCK-8 reagent was obtained from Yeasen.
Cell proliferation was assessed by CCK-8 assay (Yeasen) per the manufacturer's instructions. The MV-4-11 (AML), H1975, and KM12-luc cells were seeded at 30,000, 3,000 and 2,500 cells per well onto 96-well plates, and after a 24 h incubation, the cells were treated with test compounds for 72 hrs. Cell viability was assayed by incubating the cells with CCK-8 reagent for 1-4 hrs. Absorbance was measured at OD450 using the Beckman DTX880. The data was calculated using GraphPad Prism version 6.01. The IC50 values were fitted using a non-linear regression model with a sigmoidal dose response.

Row | Structure (SMILES) | IC50 [nM]
6 | COc1cccc2c(-c3nc(Nc4ccc(N5CC[C@@H](N(C)C)C5)c(NC(C)=O)c4)ncc3Cl)cn(C)c12 [Compound R-435, (R)—N-(5-(5-chloro-4-(7-methoxy-1-methyl-1H-indol-3-yl)pyrimidin-2-ylamino)-2-(3-(dimethylamino)pyrrolidin-1-yl)phenyl)acetamide] | 1040
7 | COc1cnc(Nc2ccc(N3CC[C@H](N(C)C)C3)c(NC(C)=O)c2)nc1-c1c[nH]c2c(OC)cccc12 [Compound S-288, (S)—N-(2-(3-(dimethylamino)pyrrolidin-1-yl)-5-((5-methoxy-4-(7-methoxy-1H-indol-3-yl)pyrimidin-2-yl)amino)phenyl)acetamide] | 1260
8 | COc1cnc(Nc2ccc(N3CC[C@H](N(C)C)C3)c(NC(C)=O)c2)nc1-c1c[nH]c2c(F)cccc12 [Compound S-280, (S)—N-(2-(3-(dimethylamino)pyrrolidin-1-yl)-5-((4-(7-fluoro-1H-indol-3-yl)-5-methoxypyrimidin-2-yl)amino)phenyl)acetamide] | 1250
9 | COc1cccc2c(-c3nc(Nc4ccc(N(C)CCN(C)C)c(NC(C)=O)c4)ncc3F)c[nH]c12 [Compound 529, N-(2-((2-(dimethylamino)ethyl)(methyl)amino)-5-((5-fluoro-4-(7-methoxy-1H-indol-3-yl)pyrimidin-2-yl)amino)phenyl)acetamide] | 958
10 | CCC(=O)Nc1cc(Nc2nccc(-c3c[nH]c4c(F)cccc34)n2)ccc1N(C)CCN(C)C [Compound 547, N-(2-((2-(dimethylamino)ethyl)(methyl)amino)-5-((4-(7-fluoro-1H-indol-3-yl)pyrimidin-2-yl)amino)phenyl)propionamide] | 1180
11 | COc1cccc2c(-c3ccnc(Nc4ccc(N(C)CCN(C)C)c(N)c4)n3)c[nH]c12 [Compound 553, N^1-(2-(dimethylamino)ethyl)-N^4-(4-(7-methoxy-1H-indol-3-yl)pyrimidin-2-yl)-N^1-methylbenzene-1,2,4-triamine] | 1140
12 | CC(=O)Nc1cc(Nc2nccc(-c3c[nH]c4c(C)cccc34)n2)ccc1N(C)CCN(C)C [Compound 551, N-(2-((2-(dimethylamino)ethyl)(methyl)amino)-5-((4-(7-methyl-1H-indol-3-yl)pyrimidin-2-yl)amino)phenyl)acetamide] | 1540
13 | CN(C)CCN(C)c1ccc(Nc2ncc(F)c(-c3c[nH]c4c(F)cccc34)n2)cc1N [Compound 520, N^1-(2-(dimethylamino)ethyl)-N^4-(5-fluoro-4-(7-fluoro-1H-indol-3-yl)pyrimidin-2-yl)-N-methylbenzene-1,2,4-triamine] | 1180
14 | CN(C)CCN(C)c1ccc(Nc2nccc(-c3c[nH]c4c(F)cccc34)n2)cc1N [Compound 545, N^1-(2-(dimethylamino)ethyl)-N^1-methyl-N^4-(4-(7-fluoro-1H-indol-3-yl)pyrimidin-2-yl)benzene-1,2,4-triamine] | 876
15 | CCC(=O)Nc1cc(Nc2ncc(OC)c(-c3c[nH]c4c(OC)cccc34)n2)ccc1N(C)CCN(C)C [Compound 538, N-(2-((2-(dimethylamino)ethyl)(methyl)amino)-5-((5-methoxy-4-(7-methoxy-1H-indol-3-yl)pyrimidin-2-yl)amino)phenyl)propionamide] | 3680
16 | COc1cccc2c(-c3ccnc(Nc4ccc(N(C)CCN(C)C)c(NC(C)=O)c4)n3)c[nH]c12 [Compound 554, N-(2-((2-(dimethylamino)ethyl)(methyl)amino)-5-((4-(7-methoxy-1H-indol-3-yl)pyrimidin-2-yl)amino)phenyl)acetamide] | 1030
17 | COc1cnc(Nc2ccc(N(C)CCN(C)C)c(NC(C)=O)c2)nc1-c1c[nH]c2c(C)cccc12 [Compound 533, N-(2-((2-(dimethylamino)ethyl)(methyl)amino)-5-((5-methoxy-4-(7-methyl-1H-indol-3-yl)pyrimidin-2-yl)amino)phenyl)acetamide] | 1110
18 | CCC(=O)Nc1cc(Nc2ncc(F)c(-c3c[nH]c4c(F)cccc34)n2)ccc1N(C)CCN(C)C [Compound 522, N-(2-((2-(dimethylamino)ethyl)(methyl)amino)-5-((5-fluoro-4-(7-fluoro-1H-indol-3-yl)pyrimidin-2-yl)amino)phenyl)propionamide] | 999
19 | CCC(=O)Nc1cc(Nc2nccc(-c3c[nH]c4c(OC)cccc34)n2)ccc1N(C)CCN(C)C [Compound 555, N-(2-((2-(dimethylamino)ethyl)(methyl)amino)-5-((4-(7-methoxy-1H-indol-3-yl)pyrimidin-2-yl)amino)phenyl)propionamide] | 2250

Results, then the molecule that gave them:

Row | IC50 [nM] | Structure (SMILES)
20 | 477 | CC(=O)Nc1cc(Nc2ncc(C(F)(F)F)c(-c3c[nH]c4cccc(F)c34)n2)ccc1N(C)CCN(C)C [Compound 316, N-(2-((2-(dimethylamino)ethyl)(methyl)amino)-5-((4-(4-fluoro-1H-indol-3-yl)-5-(trifluoromethyl)pyrimidin-2-yl)amino)phenyl)acetamide]
21 | 109 | CC(=O)Nc1cc(Nc2ncc(C(F)(F)F)c(-c3c[nH]c4ccccc34)n2)ccc1NCCN(C)C [Compound 303a, N-(5-((4-(1H-indol-3-yl)-5-(trifluoromethyl)pyrimidin-2-yl)amino)-2-((2-(dimethylamino)ethyl)amino)phenyl)acetamide]
22 | 80.4 | CCC(=O)Nc1cc(Nc2ncc(C(F)(F)F)c(-c3c[nH]c4c(C)cccc34)n2)ccc1N(C)CCN(C)C [Compound 542, N-(2-((2-(dimethylamino)ethyl)(methyl)amino)-5-((4-(7-methyl-1H-indol-3-yl)-5-(trifluoromethyl)pyrimidin-2-yl)amino)phenyl)propionamide]
23 | 769 | CCC(=O)Nc1cc(Nc2ncc(F)c(-c3c[nH]c4c(OC)cccc34)n2)ccc1N(C)CCN(C)C [Compound 530, N-(2-((2-(dimethylamino)ethyl)(methyl)amino)-5-((5-fluoro-4-(7-methoxy-1H-indol-3-yl)pyrimidin-2-yl)amino)phenyl)propionamide]
24 | 67.4 | CCC(=O)Nc1cc(Nc2ncc(C(F)(F)F)c(-c3c[nH]c4c(OC)cccc34)n2)ccc1N(C)CCN(C)C [Compound 543, N-(2-((2-(dimethylamino)ethyl)(methyl)amino)-5-((4-(7-methoxy-1H-indol-3-yl)-5-(trifluoromethyl)pyrimidin-2-yl)amino)phenyl)propionamide]
25 | 695 | CC(=O)Nc1cc(Nc2ncc(F)c(-c3c[nH]c4c(F)cccc34)n2)ccc1N(C)CCN(C)C [Compound 521, N-(2-((2-(dimethylamino)ethyl)(methyl)amino)-5-((5-fluoro-4-(7-fluoro-1H-indol-3-yl)pyrimidin-2-yl)amino)phenyl)acetamide]
26 | 298 | COc1cccc2c(-c3nc(Nc4ccc(N(C)CCN(C)C)c(N)c4)ncc3F)c[nH]c12 [Compound 528, N^1-(2-(dimethylamino)ethyl)-N^1-methyl-N^4-(5-fluoro-4-(7-methoxy-1H-indol-3-yl)pyrimidin-2-yl)benzene-1,2,4-triamine]
27 | 682 | Cc1cccc2c(-c3ccnc(Nc4ccc(N(C)CCN(C)C)c(N)c4)n3)c[nH]c12 [Compound 549, N^1-(2-(dimethylamino)ethyl)-N^1-methyl-N^4-(4-(7-methyl-1H-indol-3-yl)pyrimidin-2-yl)benzene-1,2,4-triamine]
28 | 837 | COc1cnc(Nc2ccc(N(C)CCN(C)C)c(N)c2)nc1-c1c[nH]c2c(OC)cccc12 [Compound 536, N^1-(2-(dimethylamino)ethyl)-N^1-methyl-N^4-(5-methoxy-4-(7-methoxy-1H-indol-3-yl)pyrimidin-2-yl)benzene-1,2,4-triamine]
29 | 95.4 | CCC(=O)Nc1cc(Nc2ncc(C(F)(F)F)c(-c3c[nH]c4c(F)cccc34)n2)ccc1N(C)CCN(C)C [Compound 540, N-(2-((2-(dimethylamino)ethyl)(methyl)amino)-5-((4-(7-fluoro-1H-indol-3-yl)-5-(trifluoromethyl)pyrimidin-2-yl)amino)phenyl)propionamide]
30 | 406 | CCC(=O)Nc1cc(Nc2nc(-c3c[nH]c4c(OC)cccc34)c3cc[nH]c3n2)ccc1N(C)CCN(C)C [Compound 518, N-(2-((2-(dimethylamino)ethyl)(methyl)amino)-5-((4-(7-methoxy-1H-indol-3-yl)-7H-pyrrolo[2,3-d]pyrimidin-2-yl)amino)phenyl)propionamide]

Same assay, conditions: treated with test compounds for 72 hrs, CCK-8 viability, read-out: EGFR IC50 in H1975

Row | IC50 [nM] | Structure (SMILES)
31 | 1080 | COc1cnc(Nc2ccc(N(C)CCN(C)C)c(NC(C)=O)c2)nc1-c1c[nH]c2c(C)cccc12 [Compound 537, N-(2-((2-(dimethylamino)ethyl)(methyl)amino)-5-((5-methoxy-4-(7-methyl-1H-indol-3-yl)pyrimidin-2-yl)amino)phenyl)acetamide]
